Results taken from ChEMBL document CHEMBL5108030, “Structure activity relationships leading to the identification of the indirect activator of AMPK, R419” (Bioorg Med Chem, 2022).
Calls of active or inactive are those of the source. The calls are words filed in the database; no cut-off is given here.

Tests used:
[1] = biological target: AMP-activated protein kinase, AMPK; experiment: Activation of AMPK in human HepG2 cells assessed as increase in ACC phosphorylation at Ser79 incubated for 1 hr; assay type: cell-based
[2] = biological target: AMP-activated protein kinase, AMPK; experiment: Activation of AMPK in human HepG2 cells assessed as reduction in mitochondrial ATP production incubated for 1 hr; assay type: cell-based
[3] = Microsomal stability in human liver microsomes assessed as half life; assay type: ADME, Microsome
Cytochrome P450 3A4 [4] = biological target: T1, Cytochrome P450 3A4 (Homo sapiens, UniProt P08684); experiment: Inhibition of CYP3A4 (unknown origin) in presence of NADPH; assay type: ADME
Cytochrome P450 3A4 [5] = biological target: T1, Cytochrome P450 3A4; experiment: Inhibition of CYP3A4 (unknown origin); assay type: ADME
hERG (KCNH2) = hERG (KCNH2) (Homo sapiens, UniProt Q12809); experiment: Inhibition of human ERG at 3 uM; assay type: toxicity
[6] = Clearance in rat at 1 mg/kg,iv measured upto 10 hrs; assay type: ADME, organism-based; details: in vivo
[7] = Half life in rat at 1 mg/kg,iv measured upto 10 hrs; assay type: ADME, organism-based; details: in vivo
[8] = Volume of distribution at steady state in rat at 1 mg/kg,iv measured upto 10 hrs; assay type: ADME, organism-based; details: in vivo, read-out: Vdss
[9] = AUC in rat at 5 mg/kg,po measured upto 10 hrs; assay type: ADME, organism-based; set-up: time < 10 hrs, dose 5 mg/kg, route po; details: in vivo
[10] = Oral bioavailability in rat at 5 mg/kg measured upto 10 hrs; assay type: ADME, organism-based; details: in vivo
[11] = Drug concentration in diet-induced obesity model of C57BL/6J mouse at 100 mg/kg,po measured after 10 days; assay type: ADME, organism-based; details: in vivo, time 10 day, read-out: Drug uptake
[12] = Drug concentration in diet-induced obesity model of C57BL/6J mouse at 200 mg/kg,po measured after 10 days; assay type: ADME, organism-based; details: in vivo, time 10 day, read-out: Drug uptake
[13] = Drug concentration in high fat diet-induced obesity model of C57BL/6J mouse at 100 mg/kg,po measured after 10 days; assay type: ADME, organism-based; details: in vivo, time 10 day, read-out: Drug uptake
[14] = Drug concentration in C57BL/6J mouse at 5 mg/kg,po measured after 10 days; assay type: ADME, organism-based; details: in vivo, time 10 day, read-out: Drug uptake
[15] = AUC in diet-induced obesity model of C57BL/6J mouse at 100 mg/kg,po measured after 10 days; assay type: ADME, organism-based; set-up: time 10 day, dose 100 mg/kg, route po; details: in vivo, 240 h
[16] = AUC in diet-induced obesity model of C57BL/6J mouse at 200 mg/kg,po measured after 10 days; assay type: ADME, organism-based; set-up: time 10 day, dose 200 mg/kg, route po; details: in vivo, 240 h
[17] = AUC in high fat diet-induced obesity model of C57BL/6J mouse at 100 mg/kg,po measured after 10 days; assay type: ADME, organism-based; set-up: dose 100 mg/kg, time 10 day, route po; details: in vivo, 240 h
[18] = AUC in C57BL/6J mouse at 5 mg/kg,po measured after 10 days; assay type: ADME, organism-based; set-up: time 10 day, dose 5 mg/kg, route po; details: in vivo, 240 h
Mus musculus [19] = experiment: Hypoglycemic activity in high fat diet-induced obesity mouse model assessed as improvement in glucose tolerance at 200 mg/kg,po for 4 weeks by OGTT; assay type: functional, organism-based
Mus musculus [20] = experiment: Hypoglycemic activity in high fat diet-induced obesity mouse model assessed as decrease in AUC blood glucose at 200 mg/kg,po for 4 weeks by OGTT; assay type: functional, organism-based
A549 = experiment: Antiproliferative activity against human A549 cells assessed as cell growth inhibition incubated for 48 hrs by DAPI staining assay; assay type: functional, cell-based; details: A549, 48 h
NCI-H1299 = experiment: Antiproliferative activity against human NCI-H1299 cells assessed as cell growth inhibition incubated for 48 hrs by DAPI staining assay; assay type: functional, cell-based; details: NCI-H1299, 48 h

T1 sequence (P08684 whole entry): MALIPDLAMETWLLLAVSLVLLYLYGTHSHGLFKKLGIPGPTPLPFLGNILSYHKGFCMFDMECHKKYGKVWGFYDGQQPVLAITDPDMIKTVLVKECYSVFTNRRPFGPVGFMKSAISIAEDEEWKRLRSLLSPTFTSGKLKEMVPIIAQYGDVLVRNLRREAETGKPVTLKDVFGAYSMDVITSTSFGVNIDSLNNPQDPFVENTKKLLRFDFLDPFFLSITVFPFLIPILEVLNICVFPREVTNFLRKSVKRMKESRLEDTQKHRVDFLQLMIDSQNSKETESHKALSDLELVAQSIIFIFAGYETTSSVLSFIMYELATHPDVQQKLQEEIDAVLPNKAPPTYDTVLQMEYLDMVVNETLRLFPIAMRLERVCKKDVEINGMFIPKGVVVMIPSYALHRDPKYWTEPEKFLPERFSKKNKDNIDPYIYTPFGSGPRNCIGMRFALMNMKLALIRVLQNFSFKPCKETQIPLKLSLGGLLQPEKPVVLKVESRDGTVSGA
Chain of hERG (KCNH2) (Q12809 whole entry): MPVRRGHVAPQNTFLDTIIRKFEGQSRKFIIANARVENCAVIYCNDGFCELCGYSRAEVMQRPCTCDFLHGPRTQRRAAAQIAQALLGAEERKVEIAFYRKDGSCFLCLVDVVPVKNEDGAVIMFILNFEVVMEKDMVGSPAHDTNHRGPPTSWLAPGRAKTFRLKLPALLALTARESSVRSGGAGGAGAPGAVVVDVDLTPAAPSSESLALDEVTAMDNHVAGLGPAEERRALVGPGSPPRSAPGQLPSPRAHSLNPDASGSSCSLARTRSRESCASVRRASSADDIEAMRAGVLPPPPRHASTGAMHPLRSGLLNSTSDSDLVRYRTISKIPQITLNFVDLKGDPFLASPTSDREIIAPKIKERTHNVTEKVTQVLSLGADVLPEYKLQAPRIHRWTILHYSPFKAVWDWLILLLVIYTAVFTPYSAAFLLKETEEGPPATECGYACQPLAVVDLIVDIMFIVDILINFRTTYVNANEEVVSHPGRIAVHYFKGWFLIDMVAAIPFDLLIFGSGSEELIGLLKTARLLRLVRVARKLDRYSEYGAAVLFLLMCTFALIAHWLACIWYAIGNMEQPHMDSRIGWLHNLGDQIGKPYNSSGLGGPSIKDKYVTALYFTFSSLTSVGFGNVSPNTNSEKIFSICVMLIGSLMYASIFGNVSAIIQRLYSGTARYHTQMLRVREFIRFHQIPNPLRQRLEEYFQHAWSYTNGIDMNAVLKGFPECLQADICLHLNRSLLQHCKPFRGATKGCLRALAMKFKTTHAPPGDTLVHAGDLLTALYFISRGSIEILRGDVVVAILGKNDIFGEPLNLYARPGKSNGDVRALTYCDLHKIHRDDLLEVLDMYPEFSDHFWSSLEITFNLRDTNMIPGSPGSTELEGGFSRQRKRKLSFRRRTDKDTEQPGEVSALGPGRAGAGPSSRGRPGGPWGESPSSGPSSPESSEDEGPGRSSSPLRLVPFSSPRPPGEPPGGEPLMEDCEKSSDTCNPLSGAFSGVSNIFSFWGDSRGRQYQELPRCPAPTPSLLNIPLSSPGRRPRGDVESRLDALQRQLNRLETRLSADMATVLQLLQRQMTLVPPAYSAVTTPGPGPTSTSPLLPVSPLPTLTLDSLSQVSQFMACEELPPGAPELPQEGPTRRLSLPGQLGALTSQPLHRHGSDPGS

EC50 [1]: 0.031 µM
IC50 [2]: 0.00282 µM
half-life [3]: 1.18 h
IC50 (Cytochrome P450 3A4 [4]): > 10 µM
IC50 (Cytochrome P450 3A4 [5]): > 10 µM
clearance [6]: 150 mL/min/kg
half-life [7]: 2.7 h
Vd [8]: 15.1 L/kg
AUC at 10 h [9]: 256 ng·h/mL
bioavailability [10]: 46%
concentration at 240 h [11]: 84 ng/mL
concentration at 240 h [12]: 140 ng/mL
concentration at 240 h [13]: 64 ng/mL
concentration at 240 h [14]: 440 ng/mL
AUC [15]: 1339 ng·h/kg
AUC [16]: 2429 ng·h/kg
AUC [17]: 1283 ng·h/kg
AUC [18]: 937 ng·h/kg
IC50 (A549): > 20 µM
IC50 (NCI-H1299): > 20 µM
SMILES: COc1ccc(C(=O)C2CCN(C(=O)c3ccc(C(=O)NC4CCN(Cc5ccc(C#N)cc5)CC4)cn3)CC2)cc1
inhibition at 3 µM (hERG (KCNH2)): 61%
Activity (Mus musculus [19]): Active
Activity (Mus musculus [20]): Active
